The assay concerns the target T1, human ROR1 (Homo sapiens, UniProt Q01973).
T1 construct: host or cells: HEK 293T cells, Tet-on system induced with doxycycline
Briefly: ROR1 high content cell-based binding assay. The conditions noted are these: read-out: ROR1 Binding 293T Human HC Cell Based Assay IC50. An outline of the steps: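 Doxycycline-induced 293T cells expressing human ROR1, seeded overnight, were treated with compound plus 5-FAM-labeled ROR1-binding probe peptide (30 nM final) for 1 h at 37 °C. After washing and formaldehyde/Hoechst fixation, cell-bound probe fluorescence was read by high-content imaging.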

Experimental findings from patent US20240116988A1, “ANTI-ROR1 MACROCYCLIC PEPTIDES AND COMPOSITIONS” (BRISTOL-MYERS SQUIBB COMPANY, priority 2022, published 2024) are described below.

Positions of bridges follow the written chain, without caps; N, C: chain ends. Non-standard residues stand in square brackets, D forms with d. Residues, ends and D or L forms follow the SMILES beside them. ξ: configuration not given here. NMeY = CN[C@@H](Cc1ccc(O)cc1)C(=O)O; NMeF = CN[C@@H](Cc1ccccc1)C(=O)O; NMeNle = CCCC[C@H](NC)C(=O)O; Phg = N[C@H](C(=O)O)c1ccccc1; ξY = NC(Cc1ccc(O)cc1)C(=O)O; NMeA = CN[C@@H](C)C(=O)O; ξF = NC(Cc1ccccc1)C(=O)O; ξD = NC(CC(=O)O)C(=O)O; Sar = CNCC(=O)O

T1 sequence (Q01973 30-937): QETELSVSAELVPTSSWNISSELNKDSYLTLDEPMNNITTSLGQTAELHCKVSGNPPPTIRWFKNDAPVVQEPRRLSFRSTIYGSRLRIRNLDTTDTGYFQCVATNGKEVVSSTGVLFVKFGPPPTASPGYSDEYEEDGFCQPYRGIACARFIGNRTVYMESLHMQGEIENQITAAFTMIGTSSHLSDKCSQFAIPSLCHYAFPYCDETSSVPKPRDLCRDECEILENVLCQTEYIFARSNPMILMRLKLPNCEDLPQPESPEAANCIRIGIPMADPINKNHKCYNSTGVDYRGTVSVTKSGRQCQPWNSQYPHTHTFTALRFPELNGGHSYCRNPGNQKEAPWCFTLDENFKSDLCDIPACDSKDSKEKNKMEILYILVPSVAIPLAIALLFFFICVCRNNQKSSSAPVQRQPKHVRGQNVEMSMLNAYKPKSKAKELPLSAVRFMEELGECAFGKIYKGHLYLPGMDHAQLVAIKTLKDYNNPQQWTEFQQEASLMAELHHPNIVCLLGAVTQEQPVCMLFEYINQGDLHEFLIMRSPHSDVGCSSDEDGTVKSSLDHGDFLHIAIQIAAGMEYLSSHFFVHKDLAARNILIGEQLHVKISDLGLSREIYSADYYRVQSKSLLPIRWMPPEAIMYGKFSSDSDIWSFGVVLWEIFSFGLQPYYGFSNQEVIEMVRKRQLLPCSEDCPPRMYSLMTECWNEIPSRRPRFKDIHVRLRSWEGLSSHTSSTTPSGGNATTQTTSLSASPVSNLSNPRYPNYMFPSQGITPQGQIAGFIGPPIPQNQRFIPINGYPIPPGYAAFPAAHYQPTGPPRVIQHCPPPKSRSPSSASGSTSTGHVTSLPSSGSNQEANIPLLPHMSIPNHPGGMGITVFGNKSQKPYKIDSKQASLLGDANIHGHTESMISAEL

The IC50 is the concentration that inhibits the measured activity by half. For the compound `CC(C)C[C@@H]1NC(=O)[C@H](Cc2ccc(O)cc2)NC(=O)[C@H](c2ccccc2)NC(=O)CSC[C@@H](C(=O)NCC(N)=O)NC(=O)[C@H](CC(C)C)NC(=O)[C@H](Cc2ccccc2)N(C)C(=O)[C@H](Cc2ccc(O)cc2)NC(=O)[C@H](Cc2c[nH]c3ccccc23)NC(=O)CNC(=O)[C@H](CO)NC(=O)[C@H](Cc2ccc(O)cc2)NC(=O)[C@H](C(C)C)NC1=O` [Example 1093] ({CH2CO}-[Phg]YLVYSGWY[NMeF]LCG-NH2; thioether N-12), the IC50 is 324 nM.

Consider `CC(C)C[C@@H]1NC(=O)[C@H](Cc2ccc(O)cc2)NC(=O)[C@H](Cc2ccccc2)NC(=O)CSC[C@@H](C(=O)NCC(=O)O)NC(=O)[C@H](CC(C)C)NC(=O)[C@H](Cc2ccccc2)N(C)C(=O)[C@H](Cc2ccc(O)cc2)NC(=O)[C@H](Cc2c[nH]c3ccccc23)NC(=O)CNC(=O)[C@H](CO)NC(=O)[C@H](Cc2ccc(O)cc2)NC(=O)[C@H](C(C)C)NC1=O` [Example 1080] ({CH2CO}-FYLVYSGWY[NMeF]LCG-OH; thioether N-12), for which the IC50 turned out to be 217 nM.

Consider `CC(C)C[C@@H]1NC(=O)[C@H](Cc2ccc(O)cc2)NC(=O)[C@H](C)N(C)C(=O)CSC[C@@H](C(=O)NCC(N)=O)NC(=O)[C@H](CC(C)C)NC(=O)[C@H](Cc2ccccc2)N(C)C(=O)[C@H](Cc2ccc(O)cc2)NC(=O)[C@H](Cc2c[nH]c3ccccc23)NC(=O)CNC(=O)[C@H](CO)NC(=O)[C@H](Cc2ccc(O)cc2)NC(=O)[C@H](C(C)C)NC1=O` [Example 1063] ({CH2CO}-[NMeA]YLVYSGWY[NMeF]LCG-NH2; thioether N-12), for which the IC50 was 576 nM. The value for `CC(C)C[C@@H]1NC(=O)[C@H](CC(N)=O)NC(=O)[C@H](Cc2ccc(O)cc2)N(C)C(=O)CNC(=O)[C@H](Cc2ccc(O)cc2)NC(=O)[C@H](Cc2ccccc2)NC(=O)CSC[C@@H](C(N)=O)NC(=O)[C@H](Cc2c[nH]c3ccccc23)NC(=O)[C@H](Cc2ccc(O)cc2)NC1=O` [Example 1123] ({CH2CO}-FYG[NMeY]NLYWC-NH2; thioether N-9) was 126 nM; that for `CC(C)C[C@@H]1NC(=O)[C@H](Cc2ccc(O)cc2)NC(=O)[C@H](Cc2ccccc2)NC(=O)CSC[C@@H](C(=O)NCC(N)=O)NC(=O)[C@H](CC(C)C)NC(=O)[C@H](Cc2ccccc2)N(C)C(=O)[C@H](Cc2ccc(O)cc2)NC(=O)[C@H](Cc2c[nH]c3ccccc23)NC(=O)CNC(=O)[C@H](Cc2cnc[nH]2)NC(=O)[C@H](Cc2ccc(O)cc2)NC(=O)[C@H](C(C)C)NC1=O` [Example 1015] ({CH2CO}-FYLVYHGWY[NMeF]LCG-NH2; thioether N-12) was 17 nM; that for `CC(C)C[C@@H]1NC(=O)[C@H](Cc2ccc(O)cc2)NC(=O)[C@H](Cc2ccccc2)NC(=O)CSC[C@@H](C(=O)NCC(N)=O)NC(=O)[C@H](CC(C)C)NC(=O)[C@H](Cc2ccccc2)N(C)C(=O)[C@H](Cc2ccc(O)cc2)NC(=O)[C@H](Cc2c[nH]c3ccccc23)NC(=O)CNC(=O)CNC(=O)[C@H](Cc2ccc(O)cc2)NC(=O)[C@H](C(C)C)NC1=O` [Example 1022] ({CH2CO}-FYLVYGGWY[NMeF]LCG-NH2; thioether N-12) was 34 nM.

Consider `CC(C)C[C@@H]1NC(=O)[C@H](Cc2ccc(O)cc2)NC(=O)[C@H](Cc2cnc[nH]2)NC(=O)CSC[C@@H](C(=O)NCC(N)=O)NC(=O)[C@H](CC(C)C)NC(=O)[C@H](Cc2ccccc2)N(C)C(=O)[C@H](Cc2ccc(O)cc2)NC(=O)[C@H](Cc2c[nH]c3ccccc23)NC(=O)CNC(=O)[C@H](CO)NC(=O)[C@H](Cc2ccc(O)cc2)NC(=O)[C@H](C(C)C)NC1=O` [Example 1075] ({CH2CO}-HYLVYSGWY[NMeF]LCG-NH2; thioether N-12), for which the IC50 came out at 30 nM.

On to `CC(C)C[C@@H]1NC(=O)[C@H](Cc2ccc(O)cc2)NC(=O)[C@H](Cc2ccccc2)NC(=O)CSC[C@@H](C(=O)NCC(N)=O)NC(=O)[C@@H](C)NC(=O)[C@H](Cc2ccccc2)N(C)C(=O)[C@H](Cc2ccc(O)cc2)NC(=O)[C@H](Cc2c[nH]c3ccccc23)NC(=O)CNC(=O)[C@H](CO)NC(=O)[C@H](Cc2ccc(O)cc2)NC(=O)[C@H](C(C)C)NC1=O` [Example 1061] ({CH2CO}-FYLVYSGWY[NMeF][dA]CG-NH2; thioether N-12), for which the IC50 was 645 nM. The figure for `CC(C)C[C@@H]1NC(=O)[C@H](Cc2ccc(O)cc2)NC(=O)[C@H](Cc2ccccc2)N(C)C(=O)CNC(=O)[C@H](Cc2ccc(O)cc2)NC(=O)C(Cc2ccccc2)NC(=O)CSC[C@@H](C(=O)NCC(N)=O)NC(=O)[C@H](Cc2c[nH]c3ccccc23)NC(=O)C(Cc2ccc(O)cc2)NC1=O` (stereo partly shown) [Example 1112] ({CH2CO}-[ξF]YG[NMeF]YL[ξY]WCG-NH2; thioether N-9) is 147 nM; for `CC(C)C[C@@H]1NC(=O)[C@H](C)NC(=O)[C@H](Cc2ccccc2)NC(=O)CSC[C@@H](C(=O)NCC(N)=O)NC(=O)[C@H](CC(C)C)NC(=O)[C@H](Cc2ccccc2)N(C)C(=O)[C@H](Cc2ccc(O)cc2)NC(=O)[C@H](Cc2c[nH]c3ccccc23)NC(=O)CNC(=O)[C@H](CO)NC(=O)[C@H](Cc2ccc(O)cc2)NC(=O)[C@H](C(C)C)NC1=O` [Example 1038] ({CH2CO}-FALVYSGWY[NMeF]LCG-NH2; thioether N-12) it is 23 nM. In the case of `CC(C)C[C@@H]1NC(=O)[C@H](CC(N)=O)NC(=O)[C@H](Cc2ccccc2)N(C)C(=O)CNC(=O)[C@H](Cc2ccc(O)cc2)NC(=O)[C@H](Cc2ccc(O)cc2)NC(=O)CSC[C@@H](C(N)=O)NC(=O)[C@H](Cc2c[nH]c3ccccc23)NC(=O)[C@H](Cc2ccc(O)cc2)NC1=O` [Example 1120] ({CH2CO}-YYG[NMeF]NLYWC-NH2; thioether N-9), the 50% inhibitory concentration (IC50) is 790 nM.

In the case of `CC(C)C[C@@H]1NC(=O)[C@H](Cc2ccccc2)NC(=O)CSC[C@@H](C(N)=O)NC(=O)[C@H](C(C)C)NC(=O)[C@H](Cc2ccccc2)N(C)C(=O)[C@H](CC(C)C)NC(=O)[C@H](Cc2c[nH]c3ccccc23)NC(=O)CN(C)C(=O)CNC(=O)[C@H](C(C)C)NC(=O)[C@H](Cc2c[nH]c3ccccc23)NC1=O` [Example 1202] ({CH2CO}-FLWVG[Sar]WL[NMeF]VC-NH2; thioether N-11), the IC50 amounted to 67 nM.

As for `CC(C)C[C@@H]1NC(=O)[C@H](CCC(N)=O)NC(=O)[C@H](Cc2ccccc2)N(C)C(=O)CNC(=O)[C@H](Cc2ccc(O)cc2)NC(=O)[C@H](Cc2ccccc2)NC(=O)CSC[C@@H](C(N)=O)NC(=O)[C@H](Cc2c[nH]c3ccccc23)NC(=O)[C@H](Cc2ccc(O)cc2)NC1=O` [Example 1110] ({CH2CO}-FYG[NMeF]QLYWC-NH2; thioether N-9), the IC50 is 361 nM.

Turning to `CCCC[C@H]1C(=O)N[C@H](C(=O)NCC(N)=O)CSCC(=O)N[C@@H](Cc2ccccc2)C(=O)N[C@@H](Cc2ccc(O)cc2)C(=O)N[C@@H](Cc2c[nH]c3ccccc23)C(=O)N[C@@H](CO)C(=O)N[C@@H](CO)C(=O)N[C@@H](CCCNC(=N)N)C(=O)N(C)[C@@H](C)C(=O)N[C@@H](Cc2c[nH]c3ccccc23)C(=O)N[C@@H](Cc2ccc(O)cc2)C(=O)N[C@@H](CC(C)C)C(=O)N1C` [Example 1003] ({CH2CO}-FYWSSR[NMeA]WYL[NMeNle]CG-NH2; thioether N-12), the half-maximal inhibitory concentration (IC50) is 8 nM. The figure for `CC(C)C[C@@H]1NC(=O)[C@H](Cc2c[nH]c3ccccc23)NC(=O)[C@H](Cc2ccc(O)cc2)NC(=O)[C@H](Cc2c[nH]c3ccccc23)NC(=O)CNC(=O)C(CC(=O)O)NC(=O)[C@H](Cc2ccc(O)cc2)NC(=O)[C@H](C(C)C)NC(=O)[C@@H]2CCCN2C(=O)[C@H](Cc2ccc(O)cc2)NC(=O)[C@H](Cc2ccccc2)NC(=O)CSC[C@@H](C(=O)NCC(N)=O)NC1=O` (stereo partly shown) [Example 1009] ({CH2CO}-FYPVY[ξD]GWYWLCG-NH2; thioether N-12) is 54 nM. The value for `CC(C)C[C@@H]1NC(=O)[C@H](Cc2c[nH]c3ccccc23)NC(=O)[C@H](Cc2ccccc2)NC(=O)[C@H](Cc2c[nH]c3ccccc23)NC(=O)CNC(=O)[C@H](CO)NC(=O)[C@H](Cc2ccc(O)cc2)NC(=O)[C@H](C(C)C)NC(=O)[C@@H]2CCCN2C(=O)[C@H](Cc2ccc(O)cc2)NC(=O)[C@H](Cc2ccccc2)NC(=O)CSC[C@@H](C(=O)NCC(N)=O)NC1=O` [Example 1012] ({CH2CO}-FYPVYSGWFWLCG-NH2; thioether N-12) was 36 nM; that for `CC(C)C[C@@H]1NC(=O)[C@H](Cc2ccc(O)cc2)NC(=O)[C@H](Cc2ccccc2)NC(=O)CSC[C@@H](C(=O)NCC(N)=O)NC(=O)[C@H](CC(C)C)NC(=O)[C@H](Cc2ccccc2)N(C)C(=O)[C@H](Cc2ccc(O)cc2)NC(=O)[C@H](Cc2c[nH]c3ccccc23)NC(=O)CNC(=O)CNC(=O)[C@H](CCCNC(=N)N)NC(=O)[C@H](C(C)C)NC1=O` [Example 1032] ({CH2CO}-FYLVRGGWY[NMeF]LCG-NH2; thioether N-12) was 392 nM; that for `CC(C)C[C@@H]1NC(=O)[C@H](Cc2ccc(O)cc2)NC(=O)[C@H](Cc2ccccc2)NC(=O)CSC[C@@H](C(=O)NCC(N)=O)NC(=O)[C@H](CC(C)C)NC(=O)[C@H](Cc2ccccc2)N(C)C(=O)[C@H](Cc2ccc(O)cc2)NC(=O)[C@H](Cc2c[nH]c3ccccc23)NC(=O)CNC(=O)[C@H](CO)NC(=O)[C@H](CCC(N)=O)NC(=O)[C@H](C(C)C)NC1=O` [Example 1031] ({CH2CO}-FYLVQSGWY[NMeF]LCG-NH2; thioether N-12) was 214 nM. The value for `CC(C)C[C@@H]1NC(=O)[C@H](Cc2ccc(O)cc2)NC(=O)[C@H](Cc2ccccc2)NC(=O)CSC[C@@H](C(=O)NCC(N)=O)NC(=O)[C@H](CC(C)C)NC(=O)[C@H](Cc2ccccc2)N(C)C(=O)[C@H](Cc2ccc(O)cc2)NC(=O)[C@H](Cc2c[nH]c3ccccc23)NC(=O)CNC(=O)[C@H](CC(N)=O)NC(=O)[C@H](Cc2ccc(O)cc2)NC(=O)[C@H](C(C)C)NC1=O` [Example 1021] ({CH2CO}-FYLVYNGWY[NMeF]LCG-NH2; thioether N-12) was 5 nM.
